Tests used:
[1] = system: SARS-CoV-2 South African variant (linage: B.1.351); experiment: microbe, parasite or virus in culture; format: cell-based; settings: Severe acute respiratory syndrome coronavirus 2, Calu-3, read-out: IC50, inhibition of SARS-CoV-2 replication
[2] = system: SARS-CoV-2 Scotland variant (linage: B.1.222); experiment: microbe, parasite or virus in culture; format: cell-based; settings: Severe acute respiratory syndrome coronavirus 2, Calu-3, read-out: IC50, inhibition of SARS-CoV-2 replication

| Structure (SMILES) | IC50 [1] [nM] | IC50 [2] [nM] |
| --- | --- | --- |
| O=C1Nc2cc(C(F)(F)F)ccc2Oc2ccsc21 [MU-UNMC-2, 7-(trifluoromethyl) benzo[b]thieno[2,3-f][1,4]oxazepin-10(9H)-one] | 3000 | 1390 |
| CN1C(=O)c2ccccc2[S+]([O-])c2cc([N+](=O)[O-])ccc2S1(=O)=O (stereo not shown) [MU-UNMC-1, 6-methyl-2-nitrodibenzo[d,g][1,6,2]dithiazocin-7(6H)-one 5,5,12-trioxide] | 9270 | 2640 |

Reference: article PMC8610590 (Journal of Virology, 2021)
